Experiment: Swelling of clay in water: viscosity and gel strength of sodium bentonite dispersion
Conditions: in words
Description: Additional tests were conducted to determine the utility of the metal complexes of the invention on the swelling of clay in water. 6 grams of the product were dissolved in 300 ml. of distilled water, and the pH of the solution was adjusted to 10.5 with sodium hydroxide. 30 grams of sodium bentonite were then added and the mixture was bottled and rolled 16 hours at 70°C. Viscosity and gel strengths were then determined using a Fann model 35 viscometer. Lowered viscosity and gels indicate decreased swelling and viscosity building.

aluminum
inhibiting the swelling of bentonite clays: most effective
